# Results: PubChem BioAssay (NCI)
#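 Dose response: 5 concentrations. Exposure: 48 h. Format: 96-well plates. Endpoint: linear interpolation; highest concentration if not reached. GI50 marks 50% less growth. TGI: concentration producing complete growth inhibition.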
# Assays:
# Experiment in all cases: inhibition of tumour cell growth, NCI panel, 48 h
# KM12 colon = system: KM12 colon
# IGROV1 ovarian = system: IGROV1 ovarian
# RPMI-8226 leukemia = system: RPMI-8226 leukemia
# TK-10 renal = system: TK-10 renal
# M14 melanoma = system: M14 melanoma
# HCC-2998 colon = system: HCC-2998 colon
# OVCAR-4 ovarian = system: OVCAR-4 ovarian
# UO-31 renal = system: UO-31 renal
# 786-0 renal = system: 786-0 renal
# A498 renal = system: A498 renal
SMILES,GI50 (KM12 colon) [µM],TGI (KM12 colon) [µM],GI50 (IGROV1 ovarian) [µM],TGI (IGROV1 ovarian) [µM],GI50 (RPMI-8226 leukemia) [µM],TGI (RPMI-8226 leukemia) [µM],GI50 (TK-10 renal) [µM],TGI (TK-10 renal) [µM],GI50 (M14 melanoma) [µM],TGI (M14 melanoma) [µM],GI50 (HCC-2998 colon) [µM],TGI (HCC-2998 colon) [µM],GI50 (OVCAR-4 ovarian) [µM],TGI (OVCAR-4 ovarian) [µM],GI50 (UO-31 renal) [µM],TGI (UO-31 renal) [µM],TGI (786-0 renal) [µM],TGI (A498 renal) [µM],GI50 (A498 renal) [µM]
O=C1/C(=C/c2ccc(O)cc2)COc2ccc(O)c(O)c21,1.99,6.04,2.45,7.32,0.499,3.68,3.12,> 100,3.43,20.1,3.61,13.1,2.85,65.9,1.09,2.74,,,
CNc1ncnc2c1nc(NC1CCCC1)n2C1OC(CO)C(O)C1O (configuration not stated),,> 100,,,,,,> 100,,> 100,,> 100,,> 100,,> 100,> 100,> 100,
[N-]=[N+]=CC(=O)OCCCCl,,> 100,,> 100,,> 100,,> 100,,,,> 100,,> 100,,> 100,> 100,> 100,
c1ccc2c(c1)cc1n2CCc2c-1[nH]c1ccccc21,,> 10,,> 10,,> 10,,> 10,,> 10,,> 10,,> 10,,> 10,> 10,,
CN(CCNC(=O)c1c[nH]c2c1Cc1ccccc1-2)CCNC(=O)c1c[nH]c2c1Cc1ccccc1-2,,> 100,,> 100,,73.4,,> 100,,84.6,,> 100,,> 100,,> 100,44.8,,
CC1=CP(=O)(c2c(C(C)C)cc(C(C)C)cc2C(C)C)CCC1Cl (configuration not stated),,40.2,,40.9,,40.9,,30.7,,29.8,,,,48.5,,29.2,36.7,30.4,
CC(C)=CC[C@]12CCN(C)[C@H]1N(S(=O)(=O)c1ccccc1)c1ccccc12,,> 100,,> 100,,> 73,,> 100,,,,> 61.4,,> 100,,> 100,> 90.9,> 100,
O=C(O)/C=C/c1c[nH]c(=O)[nH]c1=O,,> 500,,> 500,,> 500,,,,,,> 500,> 500,> 500,,> 500,,> 500,> 500
COc1nc2ccc(COc3ccc(C(=O)O)cc3)cc2nc1OC,,> 100,,> 100,,,,,,> 100,,> 100,,> 100,,> 100,> 100,> 100,
Nc1nc(Cl)c(Cl)c(NCC2(O)CCC2)n1,,> 100,,> 100,,> 100,,> 100,,,,> 100,,69,,> 100,> 100,97,
CC1OC2OC3C(OCC(O)C3O)OC(=O)[C@]34CCC(C)(C)CC3C3=CCC5[C@@]6(C)C[C@H](O)[C@H](OC7OC(CO)C(O)C(O)C7OC7OCC(OC(=O)CC(C)(O)CC(=O)OC1C(O)C2O)C(O)C7O)[C@@](C)(CO)C6CC[C@@]5(C)[C@]3(C)CC4 (some centres not stated),,10.5,,16.9,,17.7,,19.2,,8.87,,5.12,,,,18.5,25.6,,
Cc1cc2nc3c(C#N)c4c(c(-c5ccc(Cl)cc5)n3c2cc1C)CCC4,,47.8,,36.2,,74.4,,60.5,,32.7,,,,97.1,,39.4,35,79.4,
OC1COC2CC(Nc3ccccn3)OC12 (configuration not stated),,> 100,,> 100,,> 100,,> 100,,> 100,,> 100,,> 100,,> 100,> 100,,
CC1=C(C)CC2(C=C(C(C)(C)C)C(=O)C(C(C)(C)C)=C2)SC1,,55,,29.4,,33.8,,37.9,,99.4,,,,> 100,,29.7,36,35.4,
Cn1cc(S(=O)(=O)NC(=O)Nc2ccc(Cl)cc2)c(=O)c2ccc(F)cc21,,> 100,,> 100,,> 100,,> 100,,,,> 100,,> 100,,> 100,> 100,> 100,
C[C@]12CC(c3ccccc3O1)C(C(=O)Nc1nc(C34CC5CC(CC(C5)C3)C4)cs1)C(=O)N2 (some centres not stated),,> 100,,> 100,,> 100,,,,> 100,,> 100,,> 100,,,> 100,> 100,
CC(=O)OC1[C@H](OC(C)=O)C2=C(C)[C@@H](OC(C)=O)C[C@@]2(C(C)(C)O)[C@@H](OC(C)=O)[C@H]2[C@@]1(C)[C@@H](OC(C)=O)CC(OC(C)=O)[C@]21CO1 (some centres not stated),,> 100,,,,> 100,,> 100,,> 100,,,,> 100,,> 100,> 100,,

SMILES,GI50 (KM12 colon) [µM],TGI (KM12 colon) [µM],GI50 (IGROV1 ovarian) [µM],TGI (IGROV1 ovarian) [µM],GI50 (RPMI-8226 leukemia) [µM],TGI (RPMI-8226 leukemia) [µM],GI50 (TK-10 renal) [µM],TGI (TK-10 renal) [µM],GI50 (M14 melanoma) [µM],TGI (M14 melanoma) [µM],GI50 (HCC-2998 colon) [µM],TGI (HCC-2998 colon) [µM],GI50 (OVCAR-4 ovarian) [µM],TGI (OVCAR-4 ovarian) [µM],GI50 (UO-31 renal) [µM],TGI (UO-31 renal) [µM],TGI (786-0 renal) [µM],TGI (A498 renal) [µM],GI50 (A498 renal) [µM]
CC12CCC(CC1)C(C)(C)O2,,118,,86.3,,173,,,,,,97.7,,129,,78.3,,99.6,
Clc1ccc(C[P+](c2ccccc2)(c2ccccc2)c2ccccc2)cc1Cl,,11.3,,14.6,,,,17.6,,12.5,,11.2,,19.5,,,17,27,
CCOC(=O)c1c(SC(=O)c2ccc(OC)cc2)n(-c2ccccc2)c(=S)n(-c2ccccc2)c1=O,,> 100,,38,,,,> 100,,83.2,,> 100,,> 100,,,> 100,> 100,
C=C1C(=O)OC2CC(C)C3C4OC4C(O)C3(C)C(O)C12 (configuration not stated),,71.1,,52.1,,51.1,,,,,,75.8,,59.7,,149,,44.4,
O=C(O)c1nc2ccc(C(F)(F)F)cc2nc1Nc1ccc(F)cc1,,63,,62.6,,,,> 100,,,,34.3,,> 100,,24.6,54.5,37.6,
CC(C)C1=CC(=O)[C@@](C)(C2[C@H](O)C[C@@]3(C)[C@@H]4CC=C5[C@@H](CC[C@@H](OC6OCC(O)C(O)C6OC6OC(C)C(O)C(O)C6O)C5(C)C)[C@]4(C)C(=O)C[C@]23C)O1 (some centres not stated),,> 100,,> 100,,> 100,,,,> 100,,> 100,,> 100,,> 100,> 100,> 100,
CC(C)=CC(=O)c1[nH]c2ccccc2c1CC(=O)NCCc1cncn1C,,> 100,,> 100,,,,> 100,,> 100,,81.5,,> 100,,47.6,> 100,91.9,
CCOC(=O)C1(C#N)CC1,,> 100,,> 100,,,,> 100,,> 100,,> 100,,> 100,,> 100,> 100,,
COc1cc(-c2c3c(cc4c2OCO4)[C@@H](Nc2ccc(-c4ccc(-c5ccc(N[C@@H]6c7cc8c(cc7C(c7cc(OC)c(O)c(OC)c7)[C@H]7C(=O)OC[C@H]67)OCO8)cc5)cc4)cc2)[C@H]2COC(=O)[C@@H]2C3)cc(OC)c1O (some centres not stated),,4.63,,2.68,,,,8.59,,4.11,,,,,,13.1,6.22,21.4,
COC1C(N(C)C)=C(c2ccccc2)C(=O)N2CCc3ccccc3C12 (configuration not stated),,> 100,,> 100,,,,> 100,,> 100,,,,> 100,,> 100,> 100,> 100,
C[C@@H]1CC(=O)C[C@@H]2CC[C@H]3[C@@H]4CC[C@H](OC(=O)c5cccc6cc7ccccc7nc56)[C@H]4CC[C@@H]3[C@H]21,,31.5,,19.2,,,,65.9,,31.6,,,,30.9,,31,23.5,,
CC(C)(NC(=O)OCc1ccccc1)C(=O)OC(=O)C(C)(C)NC(=O)OCc1ccccc1,,> 100,,> 100,,> 100,,,,> 100,,,,> 100,,> 100,> 100,> 100,
C#CC(O)/C=C/CCCCCCC#CC/C=C\CC#CCCCCCCCCC(O)C#C (configuration not stated),,11.5,,1.12,,,,28.2,,,,9.8,,15.7,,1.41,5.01,28.9,
CCc1c(-c2ccc(OC)cc2)oc(OC)c(C)c1=O,,> 100,,> 100,,,,> 100,,> 100,,> 100,,> 100,,> 100,> 100,> 100,
COC(=O)C1(SC)C2CCC3C2CCC31 (configuration not stated),,,,> 100,,> 100,,,,> 100,,> 100,,> 100,,> 100,> 100,> 100,
COc1ccc(C2C(=O)c3c(OC)cc(OC)cc3OC2c2cccnc2)cc1 (configuration not stated),,> 100,,> 100,,,,> 100,,> 100,,> 100,,> 100,,> 100,> 100,> 100,
